Values of other authors in US6461848B1, “Human heparanase polypeptide and cDNA” (Novartis AG, priority 1998, dated 2002).
One block for each compound: values may come before it.

How the values were obtained:
[1] = tested on: human pancreatic (Ca-Pan-2) adenocarcinoma; settings: subcutaneous Ca-Pan-2 adenocarcinoma, nude mice
[2] = molecular target: T1, heparanase (Homo sapiens, UniProt Q9Y251)
T1 sequence (Q9Y251 36-543): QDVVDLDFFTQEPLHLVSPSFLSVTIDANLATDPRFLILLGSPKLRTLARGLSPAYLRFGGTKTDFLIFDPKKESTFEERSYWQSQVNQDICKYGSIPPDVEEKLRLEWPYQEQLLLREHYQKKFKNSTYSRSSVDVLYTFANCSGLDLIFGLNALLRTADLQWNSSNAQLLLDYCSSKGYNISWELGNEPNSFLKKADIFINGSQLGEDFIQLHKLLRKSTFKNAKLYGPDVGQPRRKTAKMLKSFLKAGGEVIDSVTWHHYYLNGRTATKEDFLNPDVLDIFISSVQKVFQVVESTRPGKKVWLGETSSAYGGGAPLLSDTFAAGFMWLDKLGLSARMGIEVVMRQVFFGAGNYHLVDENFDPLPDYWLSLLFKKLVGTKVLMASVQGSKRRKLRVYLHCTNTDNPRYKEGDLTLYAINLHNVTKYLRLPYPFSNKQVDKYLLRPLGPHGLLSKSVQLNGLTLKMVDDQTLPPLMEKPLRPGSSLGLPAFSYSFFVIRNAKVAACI

[3] = tested on: B16-F10 melanoma; settings: C57BL/6N mice, B16-F10 experimental lung metastasis
[4] = molecular target: T2, murin melanoma heparanase (Mus musculus, UniProt Q6YGZ1)
T2 construct: host or cells: murine melanoma
T2 sequence (Q6YGZ1 28-535): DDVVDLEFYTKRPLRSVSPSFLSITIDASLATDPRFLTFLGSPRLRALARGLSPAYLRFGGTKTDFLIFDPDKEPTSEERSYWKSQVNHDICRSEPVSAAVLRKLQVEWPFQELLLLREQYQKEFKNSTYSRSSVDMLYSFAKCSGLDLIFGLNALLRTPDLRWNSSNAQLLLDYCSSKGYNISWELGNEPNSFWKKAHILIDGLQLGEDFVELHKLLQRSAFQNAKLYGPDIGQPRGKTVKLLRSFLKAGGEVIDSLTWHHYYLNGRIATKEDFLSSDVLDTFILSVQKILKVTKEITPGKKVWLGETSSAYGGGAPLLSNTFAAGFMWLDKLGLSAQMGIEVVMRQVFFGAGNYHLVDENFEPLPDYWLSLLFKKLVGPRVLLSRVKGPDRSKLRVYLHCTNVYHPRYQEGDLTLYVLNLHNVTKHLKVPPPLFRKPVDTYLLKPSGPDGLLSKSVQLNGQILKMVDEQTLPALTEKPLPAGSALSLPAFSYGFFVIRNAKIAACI

[5] = tested on: murin melanoma
[6] = molecular target: T3, heparanase (Mus musculus, UniProt Q6YGZ1)
T3 sequence (Q6YGZ1 28-535): T2 sequence (Q6YGZ1 28-535)

Compound: 2,3-O-desulfated heparin
inhibition of tumor growth [1]: inhibit | inhibition of heparanase activity [2]: inhibit | survival times [3]: prolonged

inhibition of murin melanoma heparanase [4]: strongly inhibit
Compound: Cc1ccc(C(=O)Nc2ccc(S(=O)(=O)O)c3cc(S(=O)(=O)O)cc(S(=O)(=O)O)c23)cc1NC(=O)c1cccc(NC(=O)Nc2cccc(C(=O)Nc3cc(C(=O)Nc4ccc(S(=O)(=O)O)c5cc(S(=O)(=O)O)cc(S(=O)(=O)O)c45)ccc3C)c2)c1 [Suramin]
inhibition of melanoma invasion [5]: strongly inhibit

inhibition of heparanase [6]: inhibited
Compound: heparin

inhibition of heparanase [6]: not
Compound: O=C(O)[C@@H](O)[C@H]1OC(=O)[C@H](O)[C@H]1O [1,4-saccharolactone]
